This is an account of results in patent EP4782453A1 (Beyang Therapeutics Co., Ltd., priority 2023, dated 2025).

In general, IC50 refers to the concentration that inhibits the measured activity by half.

The target of one test is T1, Menin-MLL (Homo sapiens, UniProt O00255).
T1 construct: His-Menin (M1-L615 end); purchased BIORTUS BP9210
T1 sequence (O00255 1-615 isoform O00255-1): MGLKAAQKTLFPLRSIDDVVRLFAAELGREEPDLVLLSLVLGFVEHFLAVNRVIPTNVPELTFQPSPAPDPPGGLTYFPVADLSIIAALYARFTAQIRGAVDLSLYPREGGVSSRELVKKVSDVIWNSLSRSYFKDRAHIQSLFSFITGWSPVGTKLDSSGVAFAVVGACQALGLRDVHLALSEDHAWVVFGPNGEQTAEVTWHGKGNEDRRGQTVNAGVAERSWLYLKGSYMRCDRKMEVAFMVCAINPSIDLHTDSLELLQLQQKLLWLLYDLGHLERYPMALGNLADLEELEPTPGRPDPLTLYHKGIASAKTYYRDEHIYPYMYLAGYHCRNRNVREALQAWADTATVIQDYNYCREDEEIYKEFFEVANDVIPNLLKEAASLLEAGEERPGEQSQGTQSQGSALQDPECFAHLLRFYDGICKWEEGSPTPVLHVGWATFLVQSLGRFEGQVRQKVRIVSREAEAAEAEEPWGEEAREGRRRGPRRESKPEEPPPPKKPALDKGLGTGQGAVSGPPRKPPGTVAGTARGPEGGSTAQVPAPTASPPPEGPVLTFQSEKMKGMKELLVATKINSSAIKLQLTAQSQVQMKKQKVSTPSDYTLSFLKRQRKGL
As to the kind of experiment: Inhibitory activity against Menin-MLL binding (fluorescence polarization). The note with it: Menin-MLL IC50, fluorescence polarization; 150 nM His-Menin, 15 nM FITC-MLL; 25°C for 60 min. The method in brief: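 Fluorescence polarization competition: compound and 150 nM His-tagged menin (residues M1-L615) sit 15 min at 25 °C in pH 7.5 HEPES buffer with NaCl, DTT and BSA; 15 nM FITC-labelled MLL peptide then binds for 60 min. IC50 fitted sigmoidally from mP values, duplicate wells.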
In general terms: Fluorescence polarisation rises when a labelled molecule tumbles more slowly, as on binding a larger partner.
As for `COCCN(C(=O)c1cc(F)ccc1-c1cc(C2CN([C@@H](CCCN3C[C@H]4C[C@@H]3CO4)C(C)C)C2)cn2c(C)ncc12)C(C)C` [Example 467-2, 5-fluoro-N-(2-methoxyethyl)-2-(3-methyl-6-{1-[(3S)-2-methyl-6-[(1R,4R)-2-oxa-5-azadicyclo[2.2.1]heptan-5-yl]hexan-3-yl]azacyclobutan-3-yl}imidazo[1,5-a]pyridin-8-yl)-N-(isopropyl)benzamide], the IC50 came to 54 nM.
The same measure, in the same setting: under `COCCN(C(=O)c1cc(F)ccc1-c1cc(C2CN(C(CCCN3C[C@H]4C[C@@H]3CO4)C(C)C)C2)cn2c(C)ncc12)C(C)C` (stereo partly drawn) [Example 467] stands 5 nM.
Same read-out and setting: for `CCOC(=O)N1CCN(CCC[C@H](C(C)C)N2CC(c3cc(-c4ccc(F)cc4C(=O)N(CC)C(C)C)c4cnc(C)n4c3)C2)CC1` [Example 471] the value was 4.8 nM.

The same test, now with this note: fluorescence polarization; 150 nM His-Menin, 15 nM FITC-MLL; 25°C for 60 min; read-out: Menin-MLL IC50.
With `CCN(C(=O)c1cc(F)ccc1-c1cc(C2CN([C@H](CN3C[C@@H](O)[C@H](O)C3)C(C)C)C2)cn2c(C)ncc12)C(C)C` [Example 446-1, 2-(6-{1-[(2S)-1-[(3R,4R)-3,4-dihydroxylpyrrolidin-1-yl]-3-methylbutan-2-yl]azacyclobutan-3-yl}-3-methylimidazo[1,5-a]pyridin-8-yl)-N-ethyl-5-fluoro-N-(isopropyl)benzamide], the IC50 is 7.3 nM.
As to `CCN(C(=O)c1cc(F)ccc1-c1cc(C2CN([C@@H](CN3C[C@@H](O)[C@H](O)C3)C(C)C)C2)cn2c(C)ncc12)C(C)C` [Example 446-2, 2-(6-{1-[(2R)-1-[(3R,4R)-3,4-dihydroxylpyrrolidin-1-yl]-3-methylbutan-2-yl]azacyclobutan-3-yl}-3-methylimidazo[1,5-a]pyridin-8-yl)-N-ethyl-5-fluoro-N-(isopropyl)benzamide], the IC50 was 44 nM.
The same measure, in the same setting: under `CCN(C(=O)c1cc(F)ccc1-c1cc(C2CN(C(CCC3(O)COC3)C(C)C)C2)cn2c(C)ncc12)C(C)C` (stereo not drawn) [Example 447, N-ethyl-5-fluoro-2-(6-{1-[1-(3-hydroxyloxacyclobutan-3-yl)-4-methylpentan-3-yl]azacyclobut-3-yl}-3-methylimidazo[1,5-a]pyridin-8-yl)-N-(isopropyl)benzamide] stands 25 nM.
On the same count and under the same terms, for `Cc1ncc2c(-c3ccc(F)cc3C(=O)N(C)C(C)C)cc(C3CN([C@@H](CCCN4CCN(CCO)CC4)C(C)C)C3)cn12` [Example 448-1] the value was 120 nM.
The same measure, in the same setting: under `CCN(C(=O)c1cc(F)ccc1-c1cc(C2CN([C@@H](CC[C@@H]3COCCN3)C(C)C)C2)cn2c(C)ncc12)C(C)C` [Example 449-2, N-ethyl-5-fluoro-2-(3-methyl-6-{1-[(3S)-4-methyl-1-[(3R)-morpholin-3-yl]pentan-3-yl]azacyclobutan-3-yl}imidazo[1,5-a]pyridin-8-yl)-N-(isopropyl)benzamide] stands 34 nM; under `CCN(C(=O)c1cc(F)ccc1-c1cc(C2CN([C@H](CCCN3CCN(C(=O)OC(C)(C)C)CC3)C(C)C)C2)cn2c(C)ncc12)C(C)C` [Example 454-1, 4-[(4R)-4-[3-(8-{2-[ethyl(isopropyl)aminoformyl]-4-fluorophenyl}-3-methylimidazo[1,5-a]pyridin-6-yl)azacyclobutan-1-yl]-5-methylhexyl]piperazin-1-tert-butyl carboxylate], 7.7 nM.
In the case of `CCN(C(=O)c1cc(F)ccc1-c1cc(C2CN([C@@H](CCCN3CCN(C(=O)OC(C)(C)C)CC3)C(C)C)C2)cn2c(C)ncc12)C(C)C` [Example 454-2, 4-[(4S)-4-[3-(8-{2-[ethyl(isopropyl)aminoformyl]-4-fluorophenyl}-3-methylimidazo[1,5-a]pyridin-6-yl)azacyclobutan-1-yl]-5-methylhexyl]piperazin-1-tert-butyl carboxylate], the IC50 was 80 nM.
As to `CCN(C(=O)c1cc(F)ccc1-c1cc(C2CN(C(CCN3CCN(CCO)CC3)C(C)C)C2)cn2c(C)ncc12)C(C)C` (stereo not drawn) [Example 456, N-ethyl-5-fluoro-2-[6-(1-{1-[4-(2-hydroxyethyl)piperazin-1-yl]-4-methylpentan-3-yl}azacyclobutan-3-yl)-3-methylimidazo[1,5-a]pyridin-8-yl]-N-(isopropyl)benzamide], the IC50 was 14 nM.
With `CCN(C(=O)c1cc(F)ccc1-c1cc(C2CN([C@@H](CC[C@H]3COCCN3)C(C)C)C2)cn2c(C)ncc12)C(C)C` [Example 457-1, N-ethyl-5-fluoro-2-(3-methyl-6-{1-[(3S)-4-methyl-1-[(3S)-morpholin-3-yl]pentan-3-yl]azacyclobutan-3-yl}imidazo[1,5-a]pyridin-8-yl)-N-(isopropyl)benzamide], the IC50 was 40 nM.
On to `Cc1ncc2c(-c3ccc(F)cc3C(=O)N(CC(F)F)C(C)C)cc(C3CN([C@@H](CCCN4CCN(CCO)CC4)C(C)C)C3)cn12` [Example 459-2, N-(2,2-difluoroethyl)-5-fluoro-2-(6-{1-[(3S)-6-[4-(2-hydroxylethyl)piperazin-1-yl]-2-methylhexan-3-yl]azacyclobutan-3-yl}-3-methyl-imidazo[1,5-a]pyridin-8-yl)-N-(isopropyl)benzamide], for which the IC50 turned out to be 40 nM.
Turning to `CCN(C(=O)c1cc(F)ccc1-c1cc(C2CN(C(C[C@@H]3CN(C(=O)OC(C)(C)C)CCO3)C(C)C)C2)cn2c(C)ncc12)C(C)C` (stereo partly drawn) [Example 461, (2R)-2-{2-[3-(8-{2-[ethyl(isopropyl)aminoformyl]-4-fluorophenyl}-3-methylimidazo[1,5-a]pyridin-6-yl)azacyclobutan-1-yl]-3-methylbutyl}morpholin-4-tert-butyl carboxylate], the IC50 worked out at 43 nM.
Still for that read-out and setting: under `CCN(C(=O)c1cc(F)ccc1-c1cc(C2CN(C(C[C@@H]3CNCCO3)C(C)C)C2)cn2c(C)ncc12)C(C)C` (stereo partly drawn) [Example 462, N-ethyl-5-fluoro-2-[3-methyl-6-(1-{3-methyl-1-[(2R)-morpholin-2-yl]butan-2-yl}azacyclobutan-3-yl)imidazo[1,5-a]pyridin-8-yl]-N-(isopropyl)benzamide] stands 11 nM; under `CCN(C(=O)c1cc(F)ccc1-c1cc(C2(O)CN([C@H](CCCN3CCN(CCO)CC3)C(C)C)C2)cn2c(C)ncc12)C(C)C` [Example 464-1, N-ethyl-5-fluoro-2-(6-{3-hydroxyl-1-[(3R)-6-[4-(2-hydroxylethyl)piperazin-1-yl]-2-methylhexan-3-yl]azacyclobutan-3-yl}-3-methylimidazo[1,5-a]pyridin-8-yl)-N-(isopropyl)benzamide], 15 nM; under `CCN(C(=O)c1cc(F)ccc1-c1cc(C2(O)CN([C@@H](CCCN3CCN(CCO)CC3)C(C)C)C2)cn2c(C)ncc12)C(C)C` [Example 464-2, N-ethyl-5-fluoro-2-(6-{3-hydroxyl-1-[(3S)-6-[4-(2-hydroxylethyl)piperazin-1-yl]-2-methylhexan-3-yl]azacyclobutan-3-yl}-3-methylimidazo[1,5-a]pyridin-8-yl)-N-(isopropyl)benzamide], 190 nM.
On the same count and under the same terms, for `CCN(C(=O)c1cc(F)ccc1-c1cc(C2CN(C(CCCN3C[C@H]4C[C@@H]3CO4)C(C)C)C2)cc2c(C)ncn12)C(C)C` (stereo partly drawn) [Example 465, N-ethyl-5-fluoro-2-[1-methyl-7-(1-{2-methyl-6-[(1R,4R)-2-oxa-5-azabicyclo[2.2.1]heptan-5-yl]hexan-3-yl}azacyclobutan-3-yl)imidazo[1,5-a]pyridin-5-yl]-N-(isopropyl)benzamide] the value was 3.1 nM; for `CCN(C(=O)c1cc(F)ccc1-c1cc(C2CN(C(CCCN3CCN(CCO)CC3)C(C)C)C2)cc2c(C)ncn12)C(C)C` (stereo not drawn) [Example 466, N-ethyl-5-fluoro-2-[7-(1-{6-[4-(2-hydroxyethyl)piperazin-1-yl]-2-methylhexan-3-yl}azacyclobutan-3-yl)-1-methylimidazo[1,5-a]pyridin-5-yl]-N-(isopropyl)benzamide], 2.9 nM.
Regarding `CCN(C(=O)c1cc(F)ccc1-c1cc(C2CN(C(CC[C@@H]3COCCN3CCO)C(C)C)C2)cn2c(C)ncc12)C(C)C` (stereo partly drawn) [Example 469, N-ethyl-5-fluoro-2-[6-(1-{1-[(3R)-4-(2-hydroxyethyl)morpholin-3-yl]-4-methylpentan-3-yl}azacyclobutan-3-yl)-3-methylimidazo[1,5-a]pyridin-8-yl]-N-(isopropyl)benzamide], the IC50 was found to be 11 nM.
Same read-out and setting: under `CCN(C(=O)c1cc(F)ccc1-c1cc(C2CN([C@H](CCCN3CCN(C4(C(=O)N(C)C)COC4)CC3)C(C)C)C2)cn2c(C)ncc12)C(C)C` [Example 476, 3-{4-[(4R)-4-[3-(8-{2-[ethyl(isopropyl)aminoformyl]-4-fluorophenyl}-3-methylimidazo[1,5-a]pyridin-6-yl)azacyclobutan-1-yl]-5-methylhexyl]piperazin-1-yl}-N,N-dimethyloxacyclobutan-3-formamide] stands 1.9 nM.
